Measurements from US20120252729A1, “PTH-CONTAINING THERAPEUTIC/PROPHYLACTIC AGENT FOR OSTEOPOROSIS, CHARACTERIZED IN THAT PTH IS ADMINISTERED ONCE A WEEK IN A UNIT DOSE OF 100 TO 200 UNITS” (ASAHI KASEI PHARMA CORPORATION, priority 2009, published 2012).

Test system: patients diagnosed with primary osteoporosis
Test: Working Example 1: new vertebral fractures by x-ray (method of Genant et al.)
Type: in vivo, human
Description: Both the 5 and 100 unit groups were administered two tablets of a calcium agent (containing 500 mg of precipitated calcium carbonate [200 mg as calcium] per tablet) once a day.
The osteoporosis patients were classified as condition shown in Table 1 based on the bone fracture risk factors present, as in Non-patent Reference 13, and compared. High-risk patients were defined as having all three factors involving age, prevalent vertebral fractures, and bone density or bone atrophy; low-risk patients were defined as other than the above.

[1] = high-risk patients, 5 units, after 26 W
[2] = high-risk patients, 5 units, after 52 W
[3] = high-risk patients, 5 units, after 78 W
[4] = high-risk patients, 5 units, after 104 W
[5] = high-risk patients, 5 units, after 130 W
[6] = high-risk patients, 100 units, after 26 W
[7] = high-risk patients, 100 units, after 52 W
[8] = high-risk patients, 100 units, after 78 W
[9] = high-risk patients, 100 units, after 104 W
[10] = high-risk patients, 100 units, after 130 W
[11] = low-risk patients, 5 units, after 26 W
[12] = low-risk patients, 5 units, after 52 W
[13] = low-risk patients, 5 units, after 78 W
[14] = low-risk patients, 5 units, after 104 W
[15] = low-risk patients, 5 units, after 130 W
[16] = low-risk patients, 100 units, after 26 W
[17] = low-risk patients, 100 units, after 52 W
[18] = low-risk patients, 100 units, after 78 W
[19] = low-risk patients, 100 units, after 104 W
[20] = low-risk patients, 100 units, after 130 W

## teriparatide acetate
[1]
  New vertebral fractures every 26 weeks: Incidence (%): 9.5%
  New vertebral fractures every 26 weeks: No. of fractures: 8
  New vertebral fractures every 26 weeks: No. with fractures: 6
[2]
  New vertebral fractures every 26 weeks: Incidence (%): 11.1%
  New vertebral fractures every 26 weeks: No. of fractures: 9
  New vertebral fractures every 26 weeks: No. with fractures: 7
[3]
  New vertebral fractures every 26 weeks: Incidence (%): 7.0%
  New vertebral fractures every 26 weeks: No. of fractures: 4
  New vertebral fractures every 26 weeks: No. with fractures: 4
[4]
  New vertebral fractures every 26 weeks: Incidence (%): 2.9%
  New vertebral fractures every 26 weeks: No. of fractures: 1
  New vertebral fractures every 26 weeks: No. with fractures: 1
[5]
  New vertebral fractures every 26 weeks: No. of fractures: 0
  New vertebral fractures every 26 weeks: No. with fractures: 0
[6]
  New vertebral fractures every 26 weeks: Incidence (%): 2.0%
  New vertebral fractures every 26 weeks: No. of fractures: 1
  New vertebral fractures every 26 weeks: No. with fractures: 1
[7]
  New vertebral fractures every 26 weeks: Incidence (%): 2.0%
  New vertebral fractures every 26 weeks: No. of fractures: 1
  New vertebral fractures every 26 weeks: No. with fractures: 1
[8]
  New vertebral fractures every 26 weeks: Incidence (%): 2.2%
  New vertebral fractures every 26 weeks: No. of fractures: 1
  New vertebral fractures every 26 weeks: No. with fractures: 1
[9]
  New vertebral fractures every 26 weeks: No. of fractures: 0
  New vertebral fractures every 26 weeks: No. with fractures: 0
[10]
  New vertebral fractures every 26 weeks: No. of fractures: 0
  New vertebral fractures every 26 weeks: No. with fractures: 0
[11]
  New vertebral fractures every 26 weeks: No. of fractures: 0
  New vertebral fractures every 26 weeks: No. with fractures: 0
[12]
  New vertebral fractures every 26 weeks: Incidence (%): 4.8%
  New vertebral fractures every 26 weeks: No. of fractures: 1
  New vertebral fractures every 26 weeks: No. with fractures: 1
[13]
  New vertebral fractures every 26 weeks: No. of fractures: 0
  New vertebral fractures every 26 weeks: No. with fractures: 0
[14]
  New vertebral fractures every 26 weeks: No. of fractures: 0
  New vertebral fractures every 26 weeks: No. with fractures: 0
[15]
  New vertebral fractures every 26 weeks: No. of fractures: 0
  New vertebral fractures every 26 weeks: No. with fractures: 0
[16]
  New vertebral fractures every 26 weeks: Incidence (%): 8.3%
  New vertebral fractures every 26 weeks: No. of fractures: 2
  New vertebral fractures every 26 weeks: No. with fractures: 1
[17]
  New vertebral fractures every 26 weeks: No. of fractures: 0
  New vertebral fractures every 26 weeks: No. with fractures: 0
[18]
  New vertebral fractures every 26 weeks: No. of fractures: 0
  New vertebral fractures every 26 weeks: No. with fractures: 0
[19]
  New vertebral fractures every 26 weeks: No. of fractures: 0
  New vertebral fractures every 26 weeks: No. with fractures: 0
[20]
  New vertebral fractures every 26 weeks: No. of fractures: 0
  New vertebral fractures every 26 weeks: No. with fractures: 0
